Laboratory results reported in patent US20260184691A1, “INHIBITORS AND DEGRADERS OF PIP4K PROTEIN” (Larkspur Biosciences, Inc., priority 2022, published 2026).

biological target: T1, Human PIP4K2C (Homo sapiens, UniProt Q8TBX8); assay: Enzyme binding assay (KINOMEscan), active site-directed competition binding; conditions: 11-point dose response, duplicate, top concentration 5 micromolar; read-out: Pip4k2c Kd: IC50
T1 construct: purchased Eurofins DiscoverX 87-0007-1094
T1 sequence (Q8TBX8 1-421): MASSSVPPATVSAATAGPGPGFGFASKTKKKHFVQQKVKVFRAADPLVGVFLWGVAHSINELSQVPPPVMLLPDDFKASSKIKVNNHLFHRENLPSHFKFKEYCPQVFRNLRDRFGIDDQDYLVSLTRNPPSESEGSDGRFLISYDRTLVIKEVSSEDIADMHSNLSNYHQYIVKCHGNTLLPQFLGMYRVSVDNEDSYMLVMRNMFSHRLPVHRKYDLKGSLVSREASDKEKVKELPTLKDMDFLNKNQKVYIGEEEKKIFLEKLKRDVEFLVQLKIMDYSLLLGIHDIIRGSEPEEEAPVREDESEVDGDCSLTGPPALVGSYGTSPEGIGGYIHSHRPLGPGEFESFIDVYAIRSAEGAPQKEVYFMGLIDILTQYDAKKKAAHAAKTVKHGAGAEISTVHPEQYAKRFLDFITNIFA
Description: PIP4K2C binding constants disclosed herein were determined using the proprietary Human PIP4K2C binding assay (Catalog number 87-0007-1094, Eurofins DiscoverX, San Diego, CA). This assay measures active site-directed competition binding to an immobilized ligand (see https://doi.org/10.1038/nbt1068, herein incorporated by reference in its entirety). Experiments were conducted using an 11-point dose response curve, in duplicate, with a top starting concentration of 5 micromolar; the Levenberg-Marquardt algorithm was used to fit a Hill equation to dose-response data to calculate IC50 values (see Table 5).

Structure (SMILES)	IC50
O=C1CCCN1c1ccnc(Nc2ncc(Cl)c(-c3cccc(C4CCCCC4)c3)n2)c1 [Compound 150, 1-(2-((5-chloro-4-(3-cyclohexylphenyl)pyrimidin-2-yl)amino)pyridin-4-yl)pyrrolidin-2-one]	500 to 1000 nM
O=C(c1cccc(=O)[nH]1)N1CCCC(c2nc(Nc3cncc(N4CCCC4=O)c3)ncc2Cl)C1 (centres unmarked) [Compound 161, 6-(3-(5-chloro-2-((5-(2-oxopyrrolidin-1-yl)pyridin-3-yl)amino)pyrimidin-4-yl)piperidine-1-carbonyl)pyridin-2(1H)-one]	< 500 nM
Cc1ccc(-c2nc(Nc3cncc(N4CCCC4=O)c3)ncc2Cl)cc1-c1ccccc1 [Compound 7, 1-(5-((5-chloro-4-(6-methyl-[1,1′-biphenyl]-3-yl)pyrimidin-2-yl)amino)pyridin-3-yl)pyrrolidin-2-one]	< 500 nM
O=C1CCCN1c1cncc(Nc2cc(-c3ccccc3)c(Cl)cn2)c1 [Compound 117, 1-(5-((5-chloro-4-phenylpyridin-2-yl)amino)pyridin-3-yl)pyrrolidin-2-one]	< 500 nM
O=C1CCCN1c1cncc(Nc2ncc(Cl)c(N3C(=O)CC[C@H]3c3ccccc3)n2)c1 [29, Enant A]	< 500 nM
O=C1CCCN1c1cncc(Nc2ncc(Cl)c(N3CCC(C4CCCCC4)C3)n2)c1 (centres unmarked) [Compound 45, 1-(5-((5-chloro-4-(3-cyclohexylpyrrolidin-1-yl)pyrimidin-2-yl)amino)pyridin-3-yl)pyrrolidin-2-one]	500 to 1000 nM
O=C1CCCN1c1cncc(Nc2ncc(Cl)c(C3CCCCC3)n2)c1 [Compound 97, 1-(5-((5-chloro-4-cyclohexylpyrimidin-2-yl)amino)pyridin-3-yl)pyrrolidin-2-one]	< 500 nM
Cc1cc(F)ccc1-c1nc(Nc2cncc(N3CCCC3=O)c2)ncc1Cl [Compound 113, 1-(5-((5-chloro-4-(4-fluoro-2methylphenyl)pyrimidin-2-yl)amino)pyridin-3-yl)pyrrolidin-2-one]	< 500 nM
CN1CC2(CC(=O)N(c3cncc(Nc4ncc(Cl)c(-c5cccc(-c6ccccc6)c5)n4)c3)C2)C1 [Compound 35, 6-(5-((4-([1,1′-biphenyl]-3-yl)-5-chloropyrimidin-2-yl)amino)pyridin-3-yl)-2-methyl-2,6-diazaspiro[3.4]octan-7-one]	< 500 nM
O=C1CCCN1c1cncc(Nc2cc(-c3ccc(F)cc3F)c(Cl)cn2)c1 [Compound 104, 1-(5-((5-chloro-4-(2,4-difluorophenyl)pyridin-2-yl)amino)pyridin-3-yl)pyrrolidin-2-one]	500 to 1000 nM
CN1CCC(n2cc(-c3nc(Nc4cncc(N5CCCC5=O)c4)ncc3Cl)cn2)CC1 [Compound 47, 1-(5-((5-chloro-4-(1-(1-methylpiperidin-4-yl)-1H-pyrazol-4-yl)pyrimidin-2-yl)amino)pyridin-3-yl)pyrrolidin-2-one]	< 500 nM
CN1CCN(c2cncc(Nc3ncc(Cl)c(-c4cccc(-c5ccccc5)c4)n3)c2)C1=O [Compound 32, 1-(5-((4-([1,1′-biphenyl]-3-yl)-5-chloropyrimidin-2-yl)amino)pyridin-3-yl)-3-methylimidazolidin-2-one]	< 500 nM
O=C(c1ccc[nH]c1=O)N1CCCC(c2nc(Nc3cncc(N4CCCC4=O)c3)ncc2Cl)C1 (centres unmarked) [Compound 165, 3-(3-(5-chloro-2-((5-(2-oxopyrrolidin-1-yl)pyridin-3-yl)amino)pyrimidin-4-yl)piperidine-1-carbonyl)pyridin-2(1H)-one]	< 500 nM
O=C1CCCN1c1cncc(Nc2ncc(Cl)c(-c3cccc(N4CCCC4)c3)n2)c1 [Compound 46, 1-(5-((5-chloro-4-(3-(pyrrolidin-1-yl)phenyl)pyrimidin-2-yl)amino)pyridin-3-yl)pyrrolidin-2-one]	< 500 nM
O=C(C1CCCC1)N1CCCC(c2nc(Nc3cncc(N4CCCC4=O)c3)ncc2Cl)C1 (centres unmarked) [Compound 146, 1-(5-((5-chloro-4-(1-(cyclopentanecarbonyl)piperidin-3-yl)pyrimidin-2-yl)amino)pyridin-3-yl)pyrrolidin-2-one]	< 500 nM
O=C1CCCN1c1cncc(Nc2ncc(Cl)c(N3CCC[C@H](c4ccccn4)C3)n2)c1 (single isomer, unassigned) [Compound 125]	< 500 nM
Cc1cc(-c2ccccc2)cc(-c2nc(Nc3cncc(N4CCCC4=O)c3)ncc2Cl)c1 [Compound 11, 1-(5-((5-chloro-4-(5-methyl-[1,1′-biphenyl]-3-yl)pyrimidin-2-yl)amino)pyridin-3-yl)pyrrolidin-2-one]	< 500 nM
O=C1CCCN1c1cncc(Nc2cc(-c3ccc(F)cc3)c(Cl)cn2)c1 [Compound 103, 1-(5-((5-chloro-4-(4-fluorophenyl)pyridin-2-yl)amino)pyridin-3-yl)pyrrolidin-2-one]	< 500 nM
O=C1CCCN1c1cncc(Nc2ncc(Cl)c(-c3cnn(-c4ccccc4)c3)n2)c1 [Compound 140, 1-(5-((5-chloro-4-(1-phenyl-1H-pyrazol-4-yl)pyrimidin-2-yl)amino)pyridin-3-yl)pyrrolidin-2-one]	< 500 nM
O=C(c1ccc(=O)[nH]c1)N1CCCC(c2nc(Nc3cncc(N4CCCC4=O)c3)ncc2Cl)C1 (centres unmarked) [Compound 163, 5-[3-[5-chloro-2-[[5-(2-oxopyrrolidin-1-yl)-3-pyridyl]amino]pyrimidin-4-yl]piperidine-1-carbonyl]-1H-pyridin-2-one]	< 500 nM
Cn1cc(-c2nc(Nc3cncc(N4CCCC4=O)c3)ncc2Cl)cn1 [Compound 90, 1-(5-((5-chloro-4-(1-methyl-1H-pyrazol-4-yl)pyrimidin-2-yl)amino)pyridin-3-yl)pyrrolidin-2-one]	< 500 nM
O=C1CCCN1c1cncc(Nc2ncc(Cl)c(N3CCCC(C(F)(F)F)C3)n2)c1 (centres unmarked) [Compound 101, 1-(5-((5-chloro-4-(3-(trifluoromethyl)piperidin-1-yl)pyrimidin-2-yl)amino)pyridin-3-yl)pyrrolidin-2-one]	< 500 nM
O=C1CCCN1c1cncc(Nc2ncc(F)c(C3CCCN(C4CC4)C3)n2)c1 (centres unmarked) [Compound 154, 1-(5-((4-(1-cyclopropylpiperidin-3-yl)-5-fluoropyrimidin-2-yl)amino)pyridin-3-yl)pyrrolidine-2-one]	< 500 nM
O=C1CCCN1c1cncc(Nc2ncc(Cl)c(N3CCCC(O)C3)n2)c1 (centres unmarked) [Compound 99]	< 500 nM

Continued, values first:

IC50	Structure (SMILES)
< 500 nM	O=C1CCCN1c1cncc(Nc2ncc(Cl)c(-c3ccc(F)cc3F)n2)c1 [Compound 108, 1-(5-((5-chloro-4-(2,4-difluorophenyl)pyrimidin-2-yl)amino)pyridin-3-yl)pyrrolidin-2-one]
< 500 nM	O=C(c1ccc(F)cc1)N1CCCC(c2nc(Nc3cncc(N4CCCC4=O)c3)ncc2Cl)C1 (centres unmarked) [Compound 162, 1-(5-((5-chloro-4-(1-(4-fluorobenzoyl)piperidin-3-yl)pyrimidin-2-yl)amino)pyridin-3-yl)pyrrolidin-2-one]
< 500 nM	O=C1CCCN1c1cncc(Nc2ncc(Cl)c(-c3cccc(-c4ccc(Cl)cc4)c3)n2)c1 [Compound 4, 1-(5-((5-chloro-4-(4′-chloro-[1,1′-biphenyl]-3-yl)pyrimidin-2-yl)amino)pyridin-3-yl)pyrrolidin-2-one]
< 500 nM	Cc1ccc(-c2nc(Nc3cncc(N4CCCC4=O)c3)ncc2Cl)cc1 [Compound 94, 1-(5-((5-chloro-4-(p-tolyl)pyrimidin-2-yl)amino)pyridin-3-yl)pyrrolidin-2-one]
< 500 nM	CC1CCCN(c2nc(Nc3cncc(N4CCCC4=O)c3)ncc2Cl)C1 (centres unmarked) [Compound 100, 1-(5-((5-chloro-4-(3-methylpiperidin-1-yl)pyrimidin-2-yl)amino)pyridin-3-yl)pyrrolidin-2-one]
< 500 nM	O=C1CCCN1c1cncc(Nc2ncc(Cl)c(N3CCC(N4CCCCC4)C3)n2)c1 (centres unmarked) [Compound 121, 1-(5-((5-chloro-4-(3-(piperidin-1-yl)pyrrolidin-1-yl)pyrimidin-2-yl)amino)pyridin-3-yl)pyrrolidin-2-one]
< 500 nM	O=C1CCCN1c1cncc(Nc2ncc(Cl)c(-c3cc(C4CC4)[nH]n3)n2)c1 [Compound 50, 1-(5-((5-chloro-4-(5-cyclopropyl-1H-pyrazol-3-yl)pyrimidin-2-yl)amino)pyridin-3-yl)pyrrolidin-2-one]
< 500 nM	CC1CCCCN1c1nc(Nc2cncc(N3CCCC3=O)c2)ncc1Cl (centres unmarked) [Compound 106, 1-(5-((5-chloro-4-(2-methylpiperidin-1-yl)pyrimidin-2-yl)amino)pyridin-3-yl)pyrrolidin-2-one]
< 500 nM	O=C1CCCN1c1cncc(Nc2ncc(Cl)c(N3CCC(C4CCCC4)C3)n2)c1 (centres unmarked) [Compound 136, 1-(5-((5-chloro-4-(3-cyclopentylpyrrolidin-1-yl)pyrimidin-2-yl)amino)pyridin-3-yl)pyrrolidin-2-one]
< 500 nM	Cc1ccc(-c2cccc(-c3nc(Nc4cncc(N5CCCC5=O)c4)ncc3Cl)c2)cc1 [Compound 3, 1-(5-((5-chloro-4-(4′-methyl-[1,1′-biphenyl]-3-yl)pyrimidin-2-yl)amino)pyridin-3-yl)pyrrolidin-2-one]
< 500 nM	O=C1CCCN1c1cncc(Nc2ncc(Cl)c(-c3cccc(-c4cnccn4)c3)n2)c1 [Compound 17, 1-(5-((5-chloro-4-(3-(pyrazin-2-yl)phenyl)pyrimidin-2-yl)amino)pyridin-3-yl)pyrrolidin-2-one]
